Results from US20250376466A1, “ESTER COMPOUNDS AND USE THEREOF” (NANJING REJU THERAPEUTICS, CO., LTD., priority 2022, published 2025).

Columns and labels:
[1] = tested on: normal and senescent A549 cells; assay: Senescent cell clearance index (senolytic index); format: cell-based, human; settings: higher index = greater specificity
Protocol: In this example, human non-small cell lung cancer cell line (A549 cells), human embryonic lung fibroblast cell line (IMR90 cells), human retinal pigment epithelial cells (RPE cells), mouse chondrocytes, and mouse skin fibroblasts were selected. The cells above were induced to obtain senescent cells by etoposide (10 μM). The effect of the target compounds RZ001-RZ006 and RZ201 on the viability of normal and senescent cells above was detected, thereby evaluating the specific killing effect of the prodrugs RZ001-RZ006 and RZ201 on senescent cells above.
Briefly, senescent and normal cells above were selected and plated separately (96-well plates). After adding the compounds RZ001-RZ006 and RZ201 (concentration: 1 μM) for 72 hours, CellTiter-Glo® Luminescent Cell Viability Assay Kit (Promega) was used to detect cell viability, and the results were shown in FIGS. 2A to 2E.
Furthermore, the senescent cell clearance index (senolytic index) was also calculated for both normal and senescent A549 cells, as shown in Table 4. A higher index indicates greater specificity in eliminating senescent cells and better safety.

diabetic retinopathy = assay: Mouse model of diabetic retinopathy (STZ), Evans blue penetration; format: in vivo; settings: intravitreal (IVT), 1 μL of 200 μM at 8 and 9 weeks after STZ; Evans blue at 10 weeks; FIG. 4
Protocol: The efficacy of the compounds of the present disclosure was studied in a mouse model of diabetic retinopathy by multiple administrations of streptozotocin (STZ). C57BL/6J mice at 6 to 7 weeks were weighed and their baseline blood glucose was measured (Sino). STZ (Sigma-Aldrich) was injected intraperitoneally into the mice at 55 mg/Kg for five consecutive days. Age-matched controls were injected with buffer only. Blood glucose was measured again one week after the last STZ injection. 1 μL of the test compound (200 μM, a suspension formulated in 0.015% polysorbate 80, 0.2% sodium phosphate, 0.75% sodium chloride, pH 7.2) was injected intravitreally into the STZ-treated diabetic C57BL/6J mice at 8 and 9 weeks after STZ administration. 10 weeks after STZ treatment, the retinal Evans blue penetration assay was performed.

[2] = tested on: idiopathic pulmonary fibrosis; assay: Bleomycin idiopathic pulmonary fibrosis animal model; format: in vivo, SD rats; settings: intraperitoneal (IP) 5 mg/kg, 3 consecutive weeks from day 7; Day 28; FIG. 6
Protocol: In this example, the efficacy of the compounds of the present disclosure was tested on idiopathic pulmonary fibrosis in an idiopathic pulmonary fibrosis animal model. Briefly, anesthetized 6-week-old SD rats were fixed on a foam board with medical tape. Firstly, the skin on the surface of the trachea was cut with surgical scissors to fully expose the trachea, and a 100-microlitre micro-syringe containing a certain volume of bleomycin (BLM 5 mg/kg) solution drawn based on the body weight of the rat was inserted into the trachea through the oral cavity to administer by slow bolus injection. After administration of the BLM solution, the foam plate was immediately rotated and shaken to distribute the BLM solution as evenly as possible in the lung tissue. Then the skin on the surface of the trachea was sutured with surgical sutures and about 0.5 to 1.0 mL of penicillin solution was dripped onto the epidermis to prevent infection of the surgical wound. After the 7th day of modelling, the compound solution of the present disclosure was administered via intraperitoneal (IP) injection (5 mg/kg) according to the weight of the rat for 3 consecutive weeks. Rats were euthanized by carbon dioxide at Day 28, the lung tissues were removed, the left alveolar lavage fluid was collected for white blood cell (WBC) counting, the right lung tissue portion was used for hydroxyproline (HYP) assay, and the remaining lung tissues were stained for pathology by H&E staining and Masson staining.

osteoarthritis = assay: Osteoarthritis animal model; format: in vivo, mice; settings: intra-articular injection; FIG. 7
Protocol: In this example, the efficacy of the compounds of the present disclosure was tested on osteoarthritis in an osteoarthritis animal model.
The osteoarthritis animal model was constructed by the following steps. The mice were anesthetized with isoflurane, and fixed. The hair on the right hind limb of the mice was shaved and the skin was disinfected with alcohol, and the skin of the joints was cut. Under an optical microscope, the inside of the right knee joint was incised longitudinally with a blade, without cutting the patellar ligament. The patellar ligament was pulled to one side with constant hemostasis by compression with sterile cotton swabs such that the joint cavity was fully exposed. Saline was added dropwise in time to avoid the drying up of the joint cavity. The excess muscle tissue was gently separated with a blunt forceps to expose the meniscus ligament. The anterior cruciate ligament was found in the depth of the joint cavity and cut with micro scissor. Then the wound was disinfected with penicillin solution, the muscle was sutured with sterile needle and thread, and the skin tissue was finally sutured. The efficacy of the drug was determined by intra-articular injection administration. At the endpoint of the test, continued pain threshold of the plantar was detected, and the bone joints were stained with safranin fast green.

hepatic fibrosis = assay: CCl4 mouse model of hepatic fibrosis; format: in vivo, mice; settings: intraperitoneal (IP) injection twice a week from third week of modelling; FIG. 9
Protocol: In this example, the efficacy of the compounds of the present disclosure was tested on hepatic fibrosis in an animal model of hepatic fibrosis. Briefly, C57BL/6N mice, male, 7 to 8 weeks old, 24 to 28 g of body weight, were used. The mouse model of hepatic fibrosis was induced by intraperitoneal injection of CCl4 solution at a dosage of 1 mL/kg, with a dosing frequency of 2 times/week, and a modelling cycle of 6 weeks. Dosing via intraperitoneal injection was started from the third week of modelling twice a week. At the end of the test, serum was collected, and liver tissue was taken for Masson staining index assay.

renal fibrosis = assay: Renal fibrosis animal model (ureter ligation); format: in vivo, mice; settings: intraperitoneal (IP) injection from 2nd week of modelling; FIG. 11
Protocol: In this example, the efficacy of the compound of the present disclosure was tested on renal fibrosis in an animal model of renal fibrosis. Briefly, C57BL/6J mice, male, 7 to 8 weeks old, were used. The mice were anaesthetized, made to lie supine on a foam board, and disinfected with iodophor, and a longitudinal incision was made in the skin in the middle of the lower abdomen to locate the white line of the abdominal muscle, where the abdominal muscle, fascia and peritoneal layer were dissected. After exposing the surgical field, the kidneys were exposed by pushing the stomach and mesentery of the mice to the right side with a gauze soaked with saline. The model of renal fibrosis was constructed by locating the transparent ureter from the renal pelvis along the renal artery, separating the left ureter, ligating the upper ⅓ of the left ureter, suturing the incision layer by layer, and finally disinfecting with iodophor. Dosing via intraperitoneal injection was started from the 2nd week of modelling. At the end of the experiment, the mouse serum was collected and kidney tissues were taken for Masson staining index assay.

Cc1oc(=O)oc1COC(=O)c1nc(N2CCc3cccc(C(=O)Nc4nc5ccccc5s4)c3C2)ccc1-c1cnn(CC23CC4CC(CC(C4)C2)C3)c1C [RZ201]
senescent cell clearance index (Senolytic Index) [1]: A (A represents more than 200) | vascular permeability in both the retinal and choroidal vascular leakage (diabetic retinopathy): improved vascular permeability | HYP (hydroxyproline, lung tissue) [2]: statistically significant improvements | WBC (white blood cell count, alveolar lavage fluid) [2]: statistically significant improvements | pathology scores (H&E and Masson staining, lung) [2]: statistically significant improvements | pathology scores of safranin fast green staining (osteoarthritis): statistically significant improvements | plantar mechanical pain threshold (osteoarthritis): statistically significant improvements | pathology scores (liver, Masson staining) (hepatic fibrosis): statistically significant improvements | serum alanine aminotransferase (ALT) levels (hepatic fibrosis): statistically significant improvements | serum aspartate aminotransferase (AST) levels (hepatic fibrosis): statistically significant improvements | pathology (kidney, Masson staining) (renal fibrosis): statistically significant improvements | serum creatinine (Cr) levels (renal fibrosis): statistically significant improvements | serum urea nitrogen (BUN) levels (renal fibrosis): statistically significant improvements

Cc1c(-c2ccc(N3CCc4cccc(C(=O)Nc5nc6ccccc6s5)c4C3)nc2C(=O)OCOC(=O)C(C)C)cnn1CC12CC3CC(CC(C3)C1)C2 [RZ001]
senescent cell clearance index (Senolytic Index) [1]: A (A represents more than 200) | vascular permeability in both the retinal and choroidal vascular leakage (diabetic retinopathy): improved vascular permeability | HYP (hydroxyproline, lung tissue) [2]: statistically significant improvements | WBC (white blood cell count, alveolar lavage fluid) [2]: statistically significant improvements | pathology scores (H&E and Masson staining, lung) [2]: statistically significant improvements | pathology scores of safranin fast green staining (osteoarthritis): statistically significant improvements | plantar mechanical pain threshold (osteoarthritis): statistically significant improvements | pathology scores (liver, Masson staining) (hepatic fibrosis): statistically significant improvements | serum alanine aminotransferase (ALT) levels (hepatic fibrosis): statistically significant improvements | serum aspartate aminotransferase (AST) levels (hepatic fibrosis): statistically significant improvements | pathology (kidney, Masson staining) (renal fibrosis): statistically significant improvements | serum creatinine (Cr) levels (renal fibrosis): statistically significant improvements | serum urea nitrogen (BUN) levels (renal fibrosis): statistically significant improvements
